Data reported in ChEMBL document CHEMBL2074486, “Identification of basic residues involved in drug export function of human multidrug resistance-associated protein 2” (J Biol Chem, 2000).

Experiments:
[1] = target: T1, ATP-binding cassette sub-family C member 2 (Homo sapiens, UniProt Q92887); experiment: TP_TRANSPORTER: excretion in MRP2-expressing COS-7 cells; assay type: functional, cell-based; details: monkey
[2] = target: T1, ATP-binding cassette sub-family C member 2; experiment: TP_TRANSPORTER: excretion in MRP2-expressing CHO cells; assay type: functional, cell-based; details: hamster

T1 sequence (Q92887 whole entry): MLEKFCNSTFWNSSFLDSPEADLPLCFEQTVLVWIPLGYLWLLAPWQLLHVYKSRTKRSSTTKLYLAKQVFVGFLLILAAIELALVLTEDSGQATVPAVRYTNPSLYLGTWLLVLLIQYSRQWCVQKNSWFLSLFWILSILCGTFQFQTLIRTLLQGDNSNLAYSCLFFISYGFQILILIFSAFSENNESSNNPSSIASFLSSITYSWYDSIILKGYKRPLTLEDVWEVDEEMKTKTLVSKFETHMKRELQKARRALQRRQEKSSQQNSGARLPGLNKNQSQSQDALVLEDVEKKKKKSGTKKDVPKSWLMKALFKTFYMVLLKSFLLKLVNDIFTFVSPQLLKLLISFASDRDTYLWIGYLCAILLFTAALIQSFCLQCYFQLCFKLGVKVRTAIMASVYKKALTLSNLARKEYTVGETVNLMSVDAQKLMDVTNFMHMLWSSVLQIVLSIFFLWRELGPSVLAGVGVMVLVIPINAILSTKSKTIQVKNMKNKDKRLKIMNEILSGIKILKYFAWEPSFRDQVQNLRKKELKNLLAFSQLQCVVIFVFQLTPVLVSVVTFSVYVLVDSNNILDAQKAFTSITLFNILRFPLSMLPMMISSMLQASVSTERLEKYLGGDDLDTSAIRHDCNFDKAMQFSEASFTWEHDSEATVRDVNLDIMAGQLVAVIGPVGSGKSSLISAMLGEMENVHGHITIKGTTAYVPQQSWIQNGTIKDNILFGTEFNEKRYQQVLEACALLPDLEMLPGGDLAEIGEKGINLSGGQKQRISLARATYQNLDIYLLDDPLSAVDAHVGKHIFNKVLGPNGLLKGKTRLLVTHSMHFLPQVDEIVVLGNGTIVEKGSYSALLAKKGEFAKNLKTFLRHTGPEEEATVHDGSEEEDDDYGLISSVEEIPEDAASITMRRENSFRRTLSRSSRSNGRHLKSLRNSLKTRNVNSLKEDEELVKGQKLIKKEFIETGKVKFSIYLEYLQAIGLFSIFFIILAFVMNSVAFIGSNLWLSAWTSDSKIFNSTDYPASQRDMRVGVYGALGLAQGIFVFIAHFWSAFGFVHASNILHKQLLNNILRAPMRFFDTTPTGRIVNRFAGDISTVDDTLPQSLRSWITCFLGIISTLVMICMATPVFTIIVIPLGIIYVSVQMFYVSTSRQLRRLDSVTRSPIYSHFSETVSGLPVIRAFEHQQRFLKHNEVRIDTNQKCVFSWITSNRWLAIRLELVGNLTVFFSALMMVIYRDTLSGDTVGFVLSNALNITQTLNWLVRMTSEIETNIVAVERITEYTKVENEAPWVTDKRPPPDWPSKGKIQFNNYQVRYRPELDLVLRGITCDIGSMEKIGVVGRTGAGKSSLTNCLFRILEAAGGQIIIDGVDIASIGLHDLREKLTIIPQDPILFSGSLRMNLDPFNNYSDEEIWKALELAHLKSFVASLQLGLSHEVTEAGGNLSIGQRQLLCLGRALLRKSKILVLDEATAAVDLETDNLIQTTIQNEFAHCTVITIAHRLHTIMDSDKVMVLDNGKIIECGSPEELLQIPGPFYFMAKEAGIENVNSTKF

Row | SMILES | Activity [1] | Activity [2]
1 | N[C@@H](CCC(=O)N[C@H](CSc1cc(=O)n2c(=O)ccn12)C(=O)NCC(=O)O)C(=O)O | substrate [+] | substrate [+]
2 | N[C@@H](CCC(=O)N[C@H](CSCc1ccc(-c2c3ccc(=O)cc-3oc3cc(O)ccc23)c(C(=O)O)c1)C(=O)NCC(=O)O)C(=O)O [Glutathione-methylfluorescein] | substrate [+] | substrate [+]
